{"source": "patent US20170333390A1", "about": "“PHYTOCHEMICAL COMPOSITIONS INCLUDING SESAMIN FOR ANTI-INFLAMMATORY, ANTI-CYTOKINE STORM, AND OTHER USES” (CHIANG MAI UNIVERSITY, priority 2009, published 2017)", "system": "IL-1 gene expression in LPS induced synovial fibroblast (SF) cells", "experiment": "IL-1 gene expression relative to GAPDH in LPS induced synovial fibroblast cells (RT-PCR)", "format": "cell-based", "conditions": "24 hours", "method": "Experiments were conducted to evaluate the effect of particular phytochemical compositions provided by the present disclosure on IL-1 gene expression in specified cells found within a body of a living organism. The cells used for the experiments described in example one are lipopolysaccharide (LPS) induced synovial fibroblast (SF) cells. The SF cells were isolated from synovium tissue (also referred to as synovial tissue) using standard cell isolation techniques or methods known to a person of ordinary skill in the art. In addition, LPS is obtained from a commercial source, for example Sigma-Aldrich Co. It is understood by a person having ordinary skill in the art that the SF cells may be substituted with other immune cells found within the body, for example peripheral blood mononuclear cells, lymphocytes, monocytes, and macrophages, which can be isolated using techniques or methods known to a person of ordinary skill in the art. […]\nThe amount or level of IL-1 gene expression in the SF cells was measured or determined using methods or techniques known to a person having ordinary skill in the relevant art. In example 1, Real-Time PCR (RT-PCR) was used for quantifying the amount of IL-1 gene expression in the SF cells. IL-1beta or IL-1β specific primers were used during RT-PCR, thereby facilitating the quantification of IL-1β gene expression in the SF cells. […]", "data": [{"smiles": "c1cc2c(cc1[C@H]1OC[C@H]3[C@@H]1CO[C@@H]3c1ccc3c(c1)OCO3)OCO2", "note": "[sesamin]", "values": [{"measurement": "decrease in IL-1 gene expression relative to GAPDH", "setting": "0.025 mM sesamin (culture 4), compared to control culture 3 (LPS 0.2 μg/ml + DMSO)", "value": "approximately 20%"}, {"measurement": "decrease in IL-1 gene expression relative to GAPDH", "setting": "1.0 mM sesamin (culture 9), compared to control culture 2 (LPS 0.2 μg/ml)", "value": "approximately 65%"}]}]}
